Assay results as given in patent US12252524B2, “GIP/GLP1 co-agonist compounds” (Eli Lilly and Company, priority 2018, dated 2025).
Numbered stars: 1 amine (or outer) side, 2 acyl side, 3 side chain; on linkers, the order of the positions; unused ones are H or OH. Square brackets hold non-standard residues; d marks the D form. Side chains are listed from the residue outwards. Peptide text beside a SMILES is read from it. * marks the point of attachment. C20 diacid = O=C(O)CCCCCCCCCCCCCCCCCCC(=O)*; C18 diacid = O=C(O)CCCCCCCCCCCCCCCCC(=O)*; γGlu = O=C(O)[C@H](CCC(=O)[*:2])N[*:1]; αMeY = C[C@](N)(Cc1ccc(O)cc1)C(=O)O; αMeL = CC(C)C[C@](C)(N)C(=O)O; Orn = NCCC[C@H](N)C(=O)O; AEEA = NCCOCCOCC(=O)O; Aib = CC(C)(N)C(=O)O

What was measured:
[1] = target: T1, gastric inhibitory peptide receptor (GIPR) (Homo sapiens, UniProt P48546); test: cAMP pharmacological functional assay in presence of casein, hGIPR; type: cell-based; conditions: HEK293 cells expressing hGIPR, 0.1% Casein, geometric mean; read-out: hGIPR cAMP Rel EC50 nM (SEM, n)
T1 sequence (P48546 22-466): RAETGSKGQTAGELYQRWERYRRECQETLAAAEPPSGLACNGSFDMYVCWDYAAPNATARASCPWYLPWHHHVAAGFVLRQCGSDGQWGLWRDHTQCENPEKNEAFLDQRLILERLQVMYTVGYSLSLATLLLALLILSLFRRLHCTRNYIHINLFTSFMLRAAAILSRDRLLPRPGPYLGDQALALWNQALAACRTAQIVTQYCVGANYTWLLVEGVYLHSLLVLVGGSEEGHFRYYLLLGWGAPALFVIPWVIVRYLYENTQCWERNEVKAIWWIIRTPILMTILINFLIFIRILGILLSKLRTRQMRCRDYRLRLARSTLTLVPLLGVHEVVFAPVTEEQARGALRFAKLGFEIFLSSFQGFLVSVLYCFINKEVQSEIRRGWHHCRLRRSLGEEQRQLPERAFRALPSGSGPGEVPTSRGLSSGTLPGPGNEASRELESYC

[2] = target: human GLP-1 receptor (GLP-1R) (Homo sapiens, UniProt P43220); test: cAMP pharmacological functional assay in presence of casein, hGLP-1R; type: cell-based; conditions: HEK293 cells expressing hGLP-1R, 0.1% Casein, geometric mean; read-out: hGLP1R cAMP Rel EC50 nM (SEM, n)
Sequence of human GLP-1 receptor (GLP-1R) (P43220 24-463): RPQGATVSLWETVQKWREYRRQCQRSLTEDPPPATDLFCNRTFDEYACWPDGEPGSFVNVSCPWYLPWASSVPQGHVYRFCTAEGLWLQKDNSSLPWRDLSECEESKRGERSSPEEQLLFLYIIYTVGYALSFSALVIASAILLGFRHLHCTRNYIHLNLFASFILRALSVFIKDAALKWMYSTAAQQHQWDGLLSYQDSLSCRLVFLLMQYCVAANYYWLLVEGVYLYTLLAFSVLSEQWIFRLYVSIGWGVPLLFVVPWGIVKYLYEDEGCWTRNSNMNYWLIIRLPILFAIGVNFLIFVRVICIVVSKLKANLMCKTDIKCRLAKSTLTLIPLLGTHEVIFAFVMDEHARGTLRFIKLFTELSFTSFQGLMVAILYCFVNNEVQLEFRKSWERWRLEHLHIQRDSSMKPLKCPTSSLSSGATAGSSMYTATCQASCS

human GLP-1R [3] = target: T2, human GLP-1R (Homo sapiens, UniProt P43220); test: GLP-1R CHO cell β-arrestin recruitment assay; type: cell-based; set-up: host or cells: CHO-K1 PathHunter cells, assay-ready frozen; conditions: for EC50: CHO-K1 cells; for hGLP1R B-Arrestin2 % Top: normalized to GLP-1 maximum control
T2 sequence (P43220 24-463): as above
From the text: Activated G-protein coupled receptors can interact with the β-arrestin family of signalling proteins. […] CHO-K1 cells expressing Pro-Link-tagged Human GLP-1R and enzyme-acceptor-tagged β-arrestin-2 may be obtained from DiscoveRx and prepared as assay-ready frozen cells. Test peptides are solubilized in DMSO and serial dilutions are perfomed using the Echo acoustic dispenser (LabCyte). Assay media is the PathHunter Cell Assay Buffer (DiscoveRx) containing 0.1% w/v hydrolyzed Casein (Sigma). […] Plates are incubated for 90 minutes in a 37′C/5% C02 incubator and 10 ul of PathHunter detection reagent is added (DiscoveRx) and plates are incubated at room temperature for 60 minutes. Luminescence signal is measured. Peptide concentration-response curves fit to a four-parameter logistic model to calculate potency as an EC50.

human GLP-1R [4] = target: T2, human GLP-1R; test: GLP-1R HEK293 cell membrane [35S]GTPγS binding assay; type: biochemical; set-up: expressed in transfected cells; host or cells: HEK293 cells expressing human GLP-1R; membranes; conditions: HEK293 cell membranes expressing human GLP-1R, [35S]GTPγS binding; read-out: hGLP1R GTPgS Rel EC50 nM (SEM, n)
How it was run: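 Membranes from HEK293 cells expressing the receptor incubated with peptide and […] [35S]GTPγS in HEPES pH 7.4 buffer with NaCl, MgCl2, saponin and BSA, 30 min at room temperature. Gαs-bound label captured by anti-Gαs antibody/SPA beads and counted; EC50 from four-parameter logistic fit.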

[5] = PathHunter β-arrestin-2 recruitment, 0.1% casein, read-out: hGLP1R B-Arrestin2 Rel EC50 uM (SEM, n)

Structure (SMILES) | EC50 [1] | EC50 [2] | EC50 (human GLP-1R [3]; [5]) | hGLP1R B-Arrestin2 % Top (human GLP-1R [3]) | EC50 (human GLP-1R [4]) | EC50 (human GLP-1R [3]; 0.1% w/v hydrolyzed Casein, read-out: hGLP1R B-Arrestin2 Rel EC50)
CC[C@H](C)[C@H](NC(=O)[C@H](CC(C)C)NC(=O)[C@](C)(Cc1ccc(O)cc1)NC(=O)[C@H](CCC(=O)O)NC(=O)[C@@H](NC(=O)[C@H](Cc1ccccc1)NC(=O)[C@H](C)NC(=O)C(C)(C)NC(=O)[C@H](CCC(N)=O)NC(=O)[C@H](C)NC(=O)[C@H](CCCCNC(=O)COCCOCCNC(=O)COCCOCCNC(=O)CC[C@H](NC(=O)CCCCCCCCCCCCCCCCC(=O)O)C(=O)O)NC(=O)[C@H](CCCCN)NC(=O)[C@H](CC(=O)O)NC(=O)[C@H](CC(C)C)NC(=O)[C@](C)(CC(C)C)NC(=O)[C@@H](NC(=O)[C@H](CO)NC(=O)[C@H](Cc1ccc(O)cc1)NC(=O)[C@H](CC(=O)O)NC(=O)[C@H](CO)NC(=O)[C@@H](NC(=O)[C@H](Cc1ccccc1)NC(=O)[C@@H](NC(=O)CNC(=O)[C@H](CCC(=O)O)NC(=O)C(C)(C)NC(=O)[C@H](N)Cc1ccc(O)cc1)[C@@H](C)O)[C@@H](C)O)[C@@H](C)CC)[C@@H](C)CC)C(=O)N[C@@H](C)C(=O)NCC(=O)NCC(=O)N1CCC[C@H]1C(=O)N[C@@H](CO)C(=O)N[C@@H](CO)C(=O)NCC(=O)N[C@@H](C)C(=O)N1CCC[C@H]1C(=O)N1CCC[C@H]1C(=O)N1CCC[C@H]1C(=O)N[C@@H](CO)C(N)=O [Example 376] (H-[dY][Aib]EGTFTSDYSI[αMeL]LDKK([AEEA-AEEA-γGlu-C18 diacid])AQ[Aib]AFIE[αMeY]LIAGGPSSGAPPPS-NH2) | 0.0723 nM | 0.17 nM | 0.0123 µM | 25.6% | 0.326 nM | –
CC[C@H](C)[C@H](NC(=O)[C@H](CC(C)C)NC(=O)[C@H](Cc1ccc(O)cc1)NC(=O)[C@H](CCC(=O)O)NC(=O)[C@@H](NC(=O)[C@H](Cc1ccccc1)NC(=O)[C@H](CCC(=O)O)NC(=O)C(C)(C)NC(=O)[C@H](CCC(N)=O)NC(=O)[C@H](C)NC(=O)[C@H](CCCCNC(=O)COCCOCCNC(=O)CC[C@H](NC(=O)CCCCCCCCCCCCCCCCCCC(=O)O)C(=O)O)NC(=O)[C@H](CCCCN)NC(=O)[C@H](CC(=O)O)NC(=O)[C@H](CC(C)C)NC(=O)[C@](C)(CC(C)C)NC(=O)[C@@H](NC(=O)[C@H](CO)NC(=O)[C@H](Cc1ccc(O)cc1)NC(=O)[C@H](CC(=O)O)NC(=O)[C@H](CO)NC(=O)[C@@H](NC(=O)[C@H](Cc1ccccc1)NC(=O)[C@@H](NC(=O)CNC(=O)[C@H](CCC(=O)O)NC(=O)C(C)(C)NC(=O)[C@H](N)Cc1ccc(O)cc1)[C@@H](C)O)[C@@H](C)O)[C@@H](C)CC)[C@@H](C)CC)C(=O)N[C@@H](C)C(=O)NCC(=O)NCC(=O)N1CCC[C@H]1C(=O)N[C@@H](CO)C(=O)N[C@@H](CO)C(=O)NCC(=O)N[C@@H](C)C(=O)N1CCC[C@H]1C(=O)N1CCC[C@H]1C(=O)N1CCC[C@H]1C(=O)N[C@@H](CO)C(N)=O [Example 378] (H-[dY][Aib]EGTFTSDYSI[αMeL]LDKK([AEEA-γGlu-C20 diacid])AQ[Aib]EFIEYLIAGGPSSGAPPPS-NH2) | 0.067 nM | 0.191 nM | > 10.2 µM | – | 0.359 nM | > 10.2 µM
CC[C@H](C)[C@H](NC(=O)[C@H](CC(C)C)NC(=O)[C@H](Cc1ccc(O)cc1)NC(=O)[C@H](CCC(=O)O)NC(=O)[C@@H](NC(=O)[C@H](Cc1ccccc1)NC(=O)[C@H](CCC(=O)O)NC(=O)C(C)(C)NC(=O)[C@H](CCC(N)=O)NC(=O)[C@H](C)NC(=O)[C@H](CCCCNC(=O)COCCOCCNC(=O)COCCOCCNC(=O)CC[C@H](NC(=O)CCCCCCCCCCCCCCCCC(=O)O)C(=O)O)NC(=O)[C@H](CCCN)NC(=O)[C@H](CC(=O)O)NC(=O)[C@H](CC(C)C)NC(=O)[C@](C)(CC(C)C)NC(=O)[C@@H](NC(=O)[C@H](CO)NC(=O)[C@H](Cc1ccc(O)cc1)NC(=O)[C@H](CC(=O)O)NC(=O)[C@H](CO)NC(=O)[C@@H](NC(=O)[C@H](Cc1ccccc1)NC(=O)[C@@H](NC(=O)CNC(=O)[C@H](CCC(=O)O)NC(=O)C(C)(C)NC(=O)[C@H](N)Cc1ccc(O)cc1)[C@@H](C)O)[C@@H](C)O)[C@@H](C)CC)[C@@H](C)CC)C(=O)N[C@@H](C)C(=O)NCC(=O)NCC(=O)N1CCC[C@H]1C(=O)N[C@@H](CO)C(=O)N[C@@H](CO)C(=O)NCC(=O)N[C@@H](C)C(=O)N1CCC[C@H]1C(=O)N1CCC[C@H]1C(=O)N1CCC[C@H]1C(=O)N[C@@H](CO)C(N)=O [Example 368] (H-[dY][Aib]EGTFTSDYSI[αMeL]LD[Orn]K([AEEA-AEEA-γGlu-C18 diacid])AQ[Aib]EFIEYLIAGGPSSGAPPPS-NH2) | 0.0757 nM | 0.108 nM | 0.0479 µM | 21.3% | 0.495 nM | –
CC[C@H](C)[C@H](NC(=O)[C@H](CC(C)C)NC(=O)[C@](C)(Cc1ccc(O)cc1)NC(=O)[C@H](CCC(=O)O)NC(=O)[C@@H](NC(=O)[C@H](Cc1ccccc1)NC(=O)[C@H](C)NC(=O)C(C)(C)NC(=O)[C@H](CCC(N)=O)NC(=O)[C@H](C)NC(=O)[C@H](CCCCNC(=O)COCCOCCNC(=O)COCCOCCNC(=O)CC[C@H](NC(=O)CCCCCCCCCCCCCCCCC(=O)O)C(=O)O)NC(=O)[C@H](CCCN)NC(=O)[C@H](CC(=O)O)NC(=O)[C@H](CC(C)C)NC(=O)[C@](C)(CC(C)C)NC(=O)[C@@H](NC(=O)[C@H](CO)NC(=O)[C@H](Cc1ccc(O)cc1)NC(=O)[C@H](CC(=O)O)NC(=O)[C@H](CO)NC(=O)[C@@H](NC(=O)[C@H](Cc1ccccc1)NC(=O)[C@@H](NC(=O)CNC(=O)[C@H](CCC(=O)O)NC(=O)C(C)(C)NC(=O)[C@H](N)Cc1ccc(O)cc1)[C@@H](C)O)[C@@H](C)O)[C@@H](C)CC)[C@@H](C)CC)C(=O)N[C@@H](C)C(=O)NCC(=O)NCC(=O)N1CCC[C@H]1C(=O)N[C@@H](CO)C(=O)N[C@@H](CO)C(=O)NCC(=O)N[C@@H](C)C(=O)N1CCC[C@H]1C(=O)N1CCC[C@H]1C(=O)N1CCC[C@H]1C(=O)N[C@@H](CO)C(N)=O [Example 377] (H-[dY][Aib]EGTFTSDYSI[αMeL]LD[Orn]K([AEEA-AEEA-γGlu-C18 diacid])AQ[Aib]AFIE[αMeY]LIAGGPSSGAPPPS-NH2) | 0.0544 nM | 0.136 nM | 0.00532 µM | 16.7% | 0.356 nM | –
CC[C@H](C)[C@H](NC(=O)[C@H](CC(C)C)NC(=O)[C@](C)(Cc1ccc(O)cc1)NC(=O)[C@H](CCC(=O)O)NC(=O)[C@@H](NC(=O)[C@H](Cc1ccccc1)NC(=O)[C@H](C)NC(=O)C(C)(C)NC(=O)[C@H](CCC(N)=O)NC(=O)[C@H](C)NC(=O)[C@H](CCCCNC(=O)COCCOCCNC(=O)COCCOCCNC(=O)CC[C@H](NC(=O)CCCCCCCCCCCCCCCCCCC(=O)O)C(=O)O)NC(=O)[C@H](CCC(=O)O)NC(=O)[C@H](CC(=O)O)NC(=O)[C@H](CC(C)C)NC(=O)[C@](C)(CC(C)C)NC(=O)[C@@H](NC(=O)[C@H](CO)NC(=O)[C@H](Cc1ccc(O)cc1)NC(=O)[C@H](CC(=O)O)NC(=O)[C@H](CO)NC(=O)[C@@H](NC(=O)[C@H](Cc1ccccc1)NC(=O)[C@@H](NC(=O)CNC(=O)[C@H](CCC(=O)O)NC(=O)C(C)(C)NC(=O)[C@H](N)Cc1ccc(O)cc1)[C@@H](C)O)[C@@H](C)O)[C@@H](C)CC)[C@@H](C)CC)C(=O)N[C@@H](C)C(=O)NCC(=O)NCC(=O)N1CCC[C@H]1C(=O)N[C@@H](CO)C(=O)N[C@@H](CO)C(=O)NCC(=O)N[C@@H](C)C(=O)N1CCC[C@H]1C(=O)N1CCC[C@H]1C(=O)N1CCC[C@H]1C(=O)N[C@@H](CO)C(N)=O [Example 381] (H-[dY][Aib]EGTFTSDYSI[αMeL]LDEK([AEEA-AEEA-γGlu-C20 diacid])AQ[Aib]AFIE[αMeY]LIAGGPSSGAPPPS-NH2) | – | – | 0.0155 µM | 25.8% | 0.273 nM | –
